This series is described as follows: Metabolic stability in human liver S9 fractions. In kind it is in vitro ADME. The note with it: for % Δ of % parent remaining (relative to S): relative to Pagoclone (S); for % Δ of % parent remaining (relative to racemic): relative to Pagoclone (racemic). Here is the method: Materials: Human liver S9 (20 mg/mL) were obtained from Xenotech, LLC (Lenexa, Kans.). (3-nicotinamide adenine dinucleotide phosphate, reduced form (NADPH), magnesium chloride (MgCl2), and dimethyl sulfoxide (DMSO) were purchased from Sigma-Aldrich.
Determination of Metabolic Stability: 10 mM stock solutions of test compounds were prepared in DMSO. The 10 mM stock solutions were diluted to 0.1 mM or 1.0 mM in acetonitrile (ACN). The 20 mg/mL human liver […] were diluted to 2.5 mg/mL in 0.1 M potassium phosphate buffer, pH 7.4, containing 3 mM MgCl2 and incubated with alamethicin at 10 μg/mL for 15 minutes on ice. The diluted S9 were added to wells of a 96-well deep-well polypropylene plate in triplicate. 15 μL of the 0.1 mM or 1.0 mM test compound was added to the S9 and the mixture was pre-warmed for 10 minutes. Reactions were initiated by addition of pre-warmed NADPH solution. […] The reaction mixtures were incubated at 37° C., and 50 μL aliquots were removed at 0 and 60 minutes and added to shallow-well 96-well plates which contained 50 μL of ice-cold ACN with internal standard to stop the reactions. The plates were stored at 4° C. for 20 minutes after which 100 μL of water was added to the wells of the plate before centrifugation to pellet precipitated proteins. Supernatants were transferred to another 96-well plate and analyzed for amounts of parent remaining by LC-MS/MS using an Applied Bio-systems API 4000 mass spectrometer.
Data analysis: The in vitro tu2s for test compounds were calculated from the slopes of the linear regression of % parent remaining (1n) vs incubation time relationship.
k=−[slope of linear regression of % parent remaining(ln) vs incubation time]
Data analysis was performed using Microsoft Excel Software.

Where [1] appears, read: human liver S9 fractions, 1 μM tested compound.
[2] abbreviates: human liver S9 fractions, 10 μM tested compound.

Molecules are shown by their SMILES.

Turning to `CC(C)CCC(=O)CC1c2ccccc2C(=O)N1c1ccc2ccc(Cl)nc2n1` (racemic) [Pagoclone (racemic), 2-(7-chloro-1,8-naphthyridin-2-yl)-3-(5-methyl-2-oxohexyl)isoindolin-1-one, reference compound], the “% Parent remaining at 1 hr” value is on record as 37 ± 3.8% under setting [1] and 11 ± 1.2% under setting [2].

As for `[2H]C([2H])(C(=O)C([2H])([2H])C([2H])([2H])C([2H])(C([2H])([2H])[2H])C([2H])([2H])[2H])C1c2ccccc2C(=O)N1c1ccc2ccc(Cl)nc2n1` (racemic) [Rac-141, (+/−)-2-(7-Chloro-1,8-naphthyridin-2-yl)-3-(5-(d3-methyl)-2-oxo-1,1,3,3,4,4,5,6,6,6-d10-hexyl)isoindolin-1-one], the “% Δ of % parent remaining (relative to S)” value is, setting by setting: (1 μM tested compound) 46%; (10 μM tested compound) 61%. Besides, the “% Δ of % parent remaining (relative to racemic)” value (1 μM tested compound) is 62% and the “% Δ of % parent remaining (relative to racemic)” value (10 μM tested compound) amounted to 236%. The “% Parent remaining at 1 hr” value under setting [1] is 60 ± 8.4% and the “% Parent remaining at 1 hr” value under setting [2] is listed as 37 ± 2.7%. Moreover, the “metabolic stability compared to pagoclone and (S)-pagoclone” value (human liver S9 fractions, summary in words) is “substantially greater metabolic stability”.

Turning to `CC(C)CCC(=O)CC1c2ccccc2C(=O)N1c1ccc2ccc(Cl)nc2n1` [Pagoclone (S), 2-(7-chloro-1,8-naphthyridin-2-yl)-3-(5-methyl-2-oxohexyl)isoindolin-1-one, reference compound], the “% Parent remaining at 1 hr” value reads like this: under setting [1], 41 ± 1.0%; under setting [2], 23 ± 3.9%.
